The results in this text go back to patent publication US20020071842A1, “Soluble CD1 compositions and uses thereof” (priority 2000, published 2002).

What all share (experiment): Plate-bound mCD1d fusion protein hybridoma stimulation assay (IL-2 ELISA)
Holding throughout (assay type): cell-based, mouse

One test has as its system VIII24 hybridoma. The conditions noted are these: VIII24 diverse TCR hybridoma; plate-bound mCD1d-IgGFc2a fusion protein preincubated with lipid antigen. An outline of the steps: (§1)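 Protein A plates coated with 400-600 ng/well mCD1d fusion protein and loaded with lipid antigen (40:1 antigen:protein unless specified) in PBS pH 7.2 for 24-48 hr at 37° C, washed, then given 1×10^5 hybridoma cells/well for 16-20 hr at 37° C. Supernatant IL-2 quantified by sandwich ELISA against murine IL-2 standard curve (pg/ml).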

Another test has as its system KT/23 hybridoma. The conditions noted are these: KT/23 NKT hybridoma; plate-bound mCD1d-IgGFc2a fusion protein preincubated with lipid antigen. An outline of the steps: as §1
A further test has as its system KT/7 hybridoma. The conditions noted are these: KT/7 NKT hybridoma; plate-bound mCD1d-IgGFc2a fusion protein preincubated with lipid antigen. A digest of the protocol: as §1
In a further test the test system is 24.9.E hybridoma. The conditions noted are these: for IL-2 secretion: 24.9 E NKT hybridoma, plate-bound mCD1d-IgGFc2a fusion protein preincubated with lipid antigen. An outline of the steps:
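IL-2 (pg/ml) by sandwich ELISA, regressed on a murine IL-2 standard curve, reports stimulation of hybridomas (1×10^5/well, 16-20 hr, 37° C) on immobilized mCD1d fusion protein pre-pulsed with lipid, 40:1 molar ratio by default, 24-48 hr at 37° C.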

The next test deals with VII68 hybridoma. The note with it: VII68 diverse TCR hybridoma; plate-bound mCD1d-IgGFc2a fusion protein preincubated with lipid antigen. An outline of the steps:
as §1

A further test deals with 14S.15.A hybridoma. The note with it: 14S.15.A diverse TCR hybridoma; plate-bound mCD1d-IgGFc2a fusion protein preincubated with lipid antigen. A digest of the protocol:
as §1

The next test has as its system 24.7.C hybridoma. The conditions noted are these: 24 7.C NKT hybridoma; plate-bound mCD1d-IgGFc2a fusion protein preincubated with lipid antigen. A digest of the protocol:
as §1

For the next test, the system named is 14S.6.A hybridoma. The conditions noted are these: 14S.6.A diverse TCR hybridoma; plate-bound mCD1d-IgGFc2a fusion protein preincubated with lipid antigen. An outline of the steps: as §1
In a further test the test system is 14S.10.C hybridoma. The conditions noted are these: 14S.10 C diverse TCR hybridoma; plate-bound mCD1d-IgGFc2a fusion protein preincubated with lipid antigen. A digest of the protocol: as §1
For the next test, the system named is KT/12 hybridoma. The note with it: KT/12 NKT hybridoma; plate-bound mCD1d-IgGFc2a fusion protein preincubated with lipid antigen. A digest of the protocol: as §1
The next test has as its system KT/22 hybridoma. The conditions noted are these: KT/22 NKT hybridoma; plate-bound mCD1d-IgGFc2a fusion protein preincubated with lipid antigen. A digest of the protocol:
as §1

In another test the test system is 14S.7.N hybridoma. The conditions noted are these: 14S.7.N diverse TCR hybridoma; plate-bound mCD1d-IgGFc2a fusion protein preincubated with lipid antigen. An outline of the steps:
as §1

For another test, the system named is XV19 hybridoma. The note with it: XV19 diverse TCR hybridoma; plate-bound mCD1d-IgGFc2a fusion protein preincubated with lipid antigen. A digest of the protocol:
as §1

“Also recorded” adds a separate entry of the source.

As for `CCCCCCCCCCCCCCCCCCCCCCCCCC(=O)N[C@@H](CO[C@H]1O[C@H](CO)[C@H](O)[C@H](O)[C@H]1O)[C@H](O)[C@H](O)CCCCCCCCCCCCCC` [α-GalCer, α-galactosylceramide], the IL-2 secretion in the test with VIII24 hybridoma was 0 (A “0” indicates a mean of less than 50 pg/ml IL-2 was secreted); with KT/23 hybridoma, “+++ (“+++” indicates greater than 1000 pg/ml IL-2)”; in the test on KT/7 hybridoma, “+++ (“+++” indicates greater than 1000 pg/ml IL-2)”; with 24.9.E hybridoma, “+++ (“+++” indicates greater than 1000 pg/ml IL-2)”; in the test on VII68 hybridoma, 0 (A “0” indicates a mean of less than 50 pg/ml IL-2 was secreted); in the test on 14S.15.A hybridoma, “+ (“+” indicates 50-250 pg/ml)”. In addition, the IL-2 secretion result with 24.7.C hybridoma is reported as “+++ (“+++” indicates greater than 1000 pg/ml IL-2)”; with 14S.6.A hybridoma, 0 (A “0” indicates a mean of less than 50 pg/ml IL-2 was secreted); in the test with 14S.10.C hybridoma, 0 (A “0” indicates a mean of less than 50 pg/ml IL-2 was secreted); in the test on KT/12 hybridoma, “+++ (“+++” indicates greater than 1000 pg/ml IL-2)”; in the test with KT/22 hybridoma, “+++ (“+++” indicates greater than 1000 pg/ml IL-2)”; in the test with 14S.7.N hybridoma, 0 (A “0” indicates a mean of less than 50 pg/ml IL-2 was secreted). In the test on XV19 hybridoma, the IL-2 secretion is 0 (A “0” indicates a mean of less than 50 pg/ml IL-2 was secreted). In the test with 24.9.E hybridoma (24.9.E hybridoma), the “IL-2 response to mCD1d fusion protein pre-treated with purified or synthetic lipid” value (“IL-2 response” below) is “responded strongly; also recorded: secreted IL-2 efficiently”. For the same molecule, the “enhancement of antigen recognition after pre-incubation at pH 4.0 compared to pH 7.5” value in the test with 24.9.E hybridoma (24.9.E hybridoma, 3:1 molar ratio of antigen to protein, citrate/phosphate buffer) was “approximately 4 fold”. Also, the “pre-incubation pH giving maximal IL-2 release” value in the test with 24.9.E hybridoma (24.9.E hybridoma, pH 7.5 to pH 3.0 tested) was 4.0. Moreover, in the test on 24.9.E hybridoma (24.9.E hybridoma, representative experiment, 19G11 blocking antibody included), the “IL-2 when the 19G11 anti-mCD1d mAb was included” value was determined as 103 pg/mL. For the same molecule, in the test on 24.9.E hybridoma (24.9.E hybridoma, representative experiment, mCD1d fusion protein pre-treated with antigen), the “mean IL-2 produced” value is recorded as 2,089 pg/ml.

With unglycosylated ceramide, the IL-2 secretion with VIII24 hybridoma, in the test with KT/23 hybridoma, in the test with KT/7 hybridoma, in the test with 24.9.E hybridoma, with VII68 hybridoma and in the test on 14S.15.A hybridoma was 0 (A “0” indicates a mean of less than 50 pg/ml IL-2 was secreted) in each case. Also, the IL-2 secretion with 24.7.C hybridoma, with 14S.6.A hybridoma, in the test on 14S.10.C hybridoma, in the test with KT/12 hybridoma, with KT/22 hybridoma and with 14S.7.N hybridoma was 0 (A “0” indicates a mean of less than 50 pg/ml IL-2 was secreted) throughout. Further, the IL-2 secretion in the test with XV19 hybridoma is given as 0 (A “0” indicates a mean of less than 50 pg/ml IL-2 was secreted). The “IL-2 response” value with 24.9.E hybridoma (24.9.E hybridoma) is given as “neither the unglycosylated ceramide, nor the closely related β-linked form, β-GalCer, were recognized”.

With β-galactosylceramide [β-GalCer], the IL-2 secretion in the test on VIII24 hybridoma, with KT/23 hybridoma, with KT/7 hybridoma, in the test on 24.9.E hybridoma, in the test on VII68 hybridoma and in the test with 14S.15.A hybridoma was 0 (A “0” indicates a mean of less than 50 pg/ml IL-2 was secreted) each time. The IL-2 secretion in the test on 24.7.C hybridoma, with 14S.6.A hybridoma, in the test with KT/12 hybridoma, in the test on KT/22 hybridoma, in the test with 14S.7.N hybridoma and in the test with XV19 hybridoma was 0 (A “0” indicates a mean of less than 50 pg/ml IL-2 was secreted) in each case. In addition, the “IL-2 response” value with 24.9.E hybridoma (24.9.E hybridoma) is reported as “neither the unglycosylated ceramide, nor the closely related β-linked form, β-GalCer, were recognized”.

phosphatidylinositol [PI]: the IL-2 secretion in the test on VIII24 hybridoma is given as 0 (A “0” indicates a mean of less than 50 pg/ml IL-2 was secreted); in the test with KT/23 hybridoma it was “+ (“+” indicates 50-250 pg/ml)”; with KT/7 hybridoma it was 0 (A “0” indicates a mean of less than 50 pg/ml IL-2 was secreted); with 24.9.E hybridoma it was “+ (“+” indicates 50-250 pg/ml)”; in the test on VII68 hybridoma it was 0 (A “0” indicates a mean of less than 50 pg/ml IL-2 was secreted); in the test on 14S.15.A hybridoma, 0 (A “0” indicates a mean of less than 50 pg/ml IL-2 was secreted). For the same molecule, the IL-2 secretion in the test on 24.7.C hybridoma is given as 0 (A “0” indicates a mean of less than 50 pg/ml IL-2 was secreted); with 14S.6.A hybridoma, “+ (“+” indicates 50-250 pg/ml)”; in the test on 14S.10.C hybridoma, 0 (A “0” indicates a mean of less than 50 pg/ml IL-2 was secreted); in the test on KT/12 hybridoma, “+ (“+” indicates 50-250 pg/ml)”; in the test on KT/22 hybridoma, “+ (“+” indicates 50-250 pg/ml)”; in the test with 14S.7.N hybridoma it was “+ (“+” indicates 50-250 pg/ml)”. For the same molecule, the IL-2 secretion with XV19 hybridoma is on record as 0 (A “0” indicates a mean of less than 50 pg/ml IL-2 was secreted). Also, the “IL-2 response” value with 24.9.E hybridoma (24.9.E hybridoma) is reported as “only modestly increased IL-2 secretion; also recorded: significantly less IL-2”.
